Assay results taken from PMC5896373 (Molecular Pharmacology, 2018).

Key:
P2X7R point mutant K297G = target: T1, P2X7R point mutant K297G (Homo sapiens, UniProt Q99572, I21V/K297G/M24R/N16P/N25R/Q22R/R20V/S23N/T19I/Y26L); assay: Two-electrode voltage clamp of ATP-evoked currents in Xenopus oocytes; type: cell-based; conditions: EC90 ATP, mean ± S.E.M.
T1 construct: expressed in transfected cells; host or cells: Xenopus laevis oocytes (cRNA injection)
Protocol: (§1) Additional point mutants were made using the QuikChange mutagenesis kit (Stratagene California, La Jolla, CA). The production of the correct mutations and absence of coding errors was determined by DNA sequencing (Automated ABI Sequencing Service, University of Leicester, UK). cRNA was generated for the mutants and 50 nl (50 ng) was injected into manually defoliculated stage V Xenopus laevis oocytes using an Inject+Matic microinjector (J.A. Gabay, Inject+Matic, Geneva, Switzerland). Injected oocytes were stored at 16°C in ND96 buffer [in millimolar concentrations, NaCl 96, KCl 2, CaCl2 1.8, MgCl2 1, sodium pyruvate 5, and HEPES 5 (pH 7.6) supplemented with 50 μg/ml gentamycin and 50 μg/ml tetracycline]. Three to seven days postinjection two-electrode voltage clamp recordings were made from oocytes bathed in divalent-free ND96 buffer (in millimolar concentrations, NaCl 96, KCl 2, sodium pyruvate 5, HEPES 5, and 0.1 flufenamic acid, pH 7.6). Oocytes were voltage clamped at a holding potential of −60 mV with a GeneClamp500B amplifier (Molecular Devices).
Inhibition by the antagonists was expressed as the percentage of the peak current amplitude of an EC90 concentration of ATP recorded before the application of antagonist (ATP gave reproducible responses to ATP in the absence of antagonist). […]

P2X7R point mutant F95A = target: T2, P2X7R point mutant F95A (Homo sapiens, UniProt Q99572, F95A/I21V/M24R/N16P/N25R/Q22R/R20V/S23N/T19I/Y26L); assay: cell-based
T2 construct: expressed in transfected cells; host or cells: Xenopus laevis oocytes (cRNA injection)
T2 sequence (Q99572 whole entry N16P/T19I/R20V/I21V/Q22R/S23N/M24R/N25R/Y26L/F95A): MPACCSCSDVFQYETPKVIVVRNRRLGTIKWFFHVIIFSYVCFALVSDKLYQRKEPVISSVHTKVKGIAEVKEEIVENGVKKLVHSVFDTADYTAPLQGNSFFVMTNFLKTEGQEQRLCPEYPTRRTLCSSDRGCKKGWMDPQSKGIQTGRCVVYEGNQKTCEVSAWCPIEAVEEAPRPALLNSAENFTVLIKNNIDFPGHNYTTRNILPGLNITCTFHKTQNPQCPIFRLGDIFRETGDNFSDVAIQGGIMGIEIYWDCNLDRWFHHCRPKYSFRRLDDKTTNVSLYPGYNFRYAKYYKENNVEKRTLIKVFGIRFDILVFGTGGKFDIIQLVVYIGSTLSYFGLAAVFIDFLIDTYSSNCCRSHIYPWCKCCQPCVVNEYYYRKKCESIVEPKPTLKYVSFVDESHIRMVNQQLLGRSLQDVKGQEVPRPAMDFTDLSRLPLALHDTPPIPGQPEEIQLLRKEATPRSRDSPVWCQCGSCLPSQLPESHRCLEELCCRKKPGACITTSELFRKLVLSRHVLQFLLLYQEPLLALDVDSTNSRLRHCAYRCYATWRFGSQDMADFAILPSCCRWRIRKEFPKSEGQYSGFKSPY
Protocol: (§2) Injected oocytes were stored at 16°C in ND96 buffer [in millimolar concentrations, NaCl 96, KCl 2, CaCl2 1.8, MgCl2 1, sodium pyruvate 5, and HEPES 5 (pH 7.6) supplemented with 50 μg/ml gentamycin and 50 μg/ml tetracycline]. Three to seven days postinjection two-electrode voltage clamp recordings were made from oocytes bathed in divalent-free ND96 buffer (in millimolar concentrations, NaCl 96, KCl 2, sodium pyruvate 5, HEPES 5, and 0.1 flufenamic acid, pH 7.6). Oocytes were voltage clamped at a holding potential of −60 mV with a GeneClamp500B amplifier (Molecular Devices).
(§3) Inhibition by the antagonists was expressed as the percentage of the peak current amplitude of an EC90 concentration of ATP recorded before the application of antagonist (ATP gave reproducible responses to ATP in the absence of antagonist). Inhibition curves were fitted with the Hill equation (variable slope) using GraphPad Prism 6 (GraphPad Software, San Diego, CA). […] Individual concentration-response curves were generated for individual experiments, and statistical analysis was carried out on the data generated. […] Data are shown as mean ± S.E.M. In all cases n ≥ 3 for all data points.

P2X7R mutant Insert G99 = target: T3, P2X7R mutant Insert G99 (Homo sapiens, UniProt Q99572, I21V/INS99D/M24R/N16P/N25R/Q22R/R20V/S23N/T19I/Y26L); assay: Two-electrode voltage clamp of ATP-evoked currents in Xenopus oocytes; type: cell-based; conditions: EC90 ATP, mean ± S.E.M.
T3 construct: expressed in transfected cells; host or cells: Xenopus laevis oocytes (cRNA injection)
T3 sequence (Q99572 with tags, fused parts or gaps N16P/T19I/R20V/I21V/Q22R/S23N/M24R/N25R/Y26L/INS99D): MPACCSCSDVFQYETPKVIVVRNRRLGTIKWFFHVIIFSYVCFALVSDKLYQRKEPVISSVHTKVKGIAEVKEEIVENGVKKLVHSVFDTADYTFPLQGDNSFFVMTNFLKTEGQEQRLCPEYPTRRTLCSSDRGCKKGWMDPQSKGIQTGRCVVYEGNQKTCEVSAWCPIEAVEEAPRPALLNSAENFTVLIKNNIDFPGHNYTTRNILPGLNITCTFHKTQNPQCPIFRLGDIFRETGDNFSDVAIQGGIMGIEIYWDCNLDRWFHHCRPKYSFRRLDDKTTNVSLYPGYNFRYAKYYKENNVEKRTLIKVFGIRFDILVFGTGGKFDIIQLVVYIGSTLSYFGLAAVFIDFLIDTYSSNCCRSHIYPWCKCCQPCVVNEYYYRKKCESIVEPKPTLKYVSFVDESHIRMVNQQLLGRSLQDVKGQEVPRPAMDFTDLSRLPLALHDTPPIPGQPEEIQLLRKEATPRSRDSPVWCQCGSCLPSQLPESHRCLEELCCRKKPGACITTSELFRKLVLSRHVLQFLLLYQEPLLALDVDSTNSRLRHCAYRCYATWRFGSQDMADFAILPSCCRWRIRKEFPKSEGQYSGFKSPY
Protocol: as §2
(§4) Inhibition by the antagonists was expressed as the percentage of the peak current amplitude of an EC90 concentration of ATP recorded before the application of antagonist (ATP gave reproducible responses to ATP in the absence of antagonist). Inhibition curves were fitted with the Hill equation (variable slope) using GraphPad Prism 6 (GraphPad Software, San Diego, CA). […] Individual concentration-response curves were generated for individual experiments, and statistical analysis was carried out on the data generated. When shown in figures, the inhibition curves are fitted to the mean normalized data. […] Data are shown as mean ± S.E.M. In all cases n ≥ 3 for all data points.

[1] = target: T4, chimeric P2X7/1 receptor 81–88 (Homo sapiens, UniProt Q99572, F88W/H85P/I21V/K81P/K82G/M24R/N16P/N25R/Q22R/R20V/S23N/S86Q/T19I/V84G/Y26L); assay: as above; type: cell-based
T4 construct: expressed in transfected cells; host or cells: Xenopus laevis oocytes (cRNA injection)
T4 sequence (Q99572 1-595 N16P/T19I/R20V/I21V/Q22R/S23N/M24R/N25R/Y26L/K81P/K82G/V84G/H85P/S86Q/F88W): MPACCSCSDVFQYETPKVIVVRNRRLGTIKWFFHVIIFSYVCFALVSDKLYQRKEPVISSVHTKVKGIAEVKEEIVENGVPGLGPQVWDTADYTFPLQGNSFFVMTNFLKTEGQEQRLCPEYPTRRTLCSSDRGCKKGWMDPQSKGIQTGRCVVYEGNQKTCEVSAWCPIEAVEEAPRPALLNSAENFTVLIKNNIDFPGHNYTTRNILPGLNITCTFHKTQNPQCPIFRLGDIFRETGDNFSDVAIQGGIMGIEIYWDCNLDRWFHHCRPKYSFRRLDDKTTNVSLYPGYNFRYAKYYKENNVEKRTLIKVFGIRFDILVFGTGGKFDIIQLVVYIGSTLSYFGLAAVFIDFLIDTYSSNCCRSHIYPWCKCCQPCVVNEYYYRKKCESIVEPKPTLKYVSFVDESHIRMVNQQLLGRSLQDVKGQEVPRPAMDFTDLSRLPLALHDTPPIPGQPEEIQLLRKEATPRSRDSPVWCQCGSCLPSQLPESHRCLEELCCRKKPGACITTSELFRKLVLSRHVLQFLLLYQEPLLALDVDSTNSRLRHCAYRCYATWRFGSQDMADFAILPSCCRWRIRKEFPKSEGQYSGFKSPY
Protocol: as §1, §3

P2X7R point mutant S165F = target: T5, P2X7R point mutant S165F (Homo sapiens, UniProt Q99572, I21V/M24R/N16P/N25R/Q22R/R20V/S165F/S23N/T19I/Y26L); assay: as above; type: cell-based; conditions: EC90 ATP, mean ± S.E.M.
T5 construct: expressed in transfected cells; host or cells: Xenopus laevis oocytes (cRNA injection)
T5 sequence (Q99572 whole entry N16P/T19I/R20V/I21V/Q22R/S23N/M24R/N25R/Y26L/S165F): as the sequence (Q99572 whole entry N16P/T19I/R20V/I21V/Q22R/S23N/M24R/N25R/Y26L/F95A) above, with A95F, S165F counted along it
Protocol: as §2, §4

P2X7R point mutant V312A = target: T6, P2X7R point mutant V312A (Homo sapiens, UniProt Q99572, I21V/M24R/N16P/N25R/Q22R/R20V/S23N/T19I/V312A/Y26L); assay: cell-based
T6 construct: expressed in transfected cells; host or cells: Xenopus laevis oocytes (cRNA injection)
T6 sequence (Q99572 whole entry N16P/T19I/R20V/I21V/Q22R/S23N/M24R/N25R/Y26L/V312A): as the sequence (Q99572 whole entry N16P/T19I/R20V/I21V/Q22R/S23N/M24R/N25R/Y26L/F95A) above, with A95F, V312A counted along it
Protocol: as §2, §3

P2X7R point mutant P96A = target: T7, P2X7R point mutant P96A (Homo sapiens, UniProt Q99572, I21V/M24R/N16P/N25R/P96A/Q22R/R20V/S23N/T19I/Y26L); assay: Two-electrode voltage clamp of ATP-evoked currents in Xenopus oocytes; type: cell-based; conditions: EC90 ATP, mean ± S.E.M.
T7 construct: expressed in transfected cells; host or cells: Xenopus laevis oocytes (cRNA injection)
T7 sequence (Q99572 whole entry N16P/T19I/R20V/I21V/Q22R/S23N/M24R/N25R/Y26L/P96A): as the sequence (Q99572 whole entry N16P/T19I/R20V/I21V/Q22R/S23N/M24R/N25R/Y26L/F95A) above, with A95F, P96A counted along it
Protocol: as §2, §3

P2X7R point mutant D92A = target: T8, P2X7R point mutant D92A (Homo sapiens, UniProt Q99572, D92A/I21V/M24R/N16P/N25R/Q22R/R20V/S23N/T19I/Y26L); assay: as above; type: cell-based; conditions: EC90 ATP, mean ± S.E.M.
T8 construct: expressed in transfected cells; host or cells: Xenopus laevis oocytes (cRNA injection)
T8 sequence (Q99572 whole entry N16P/T19I/R20V/I21V/Q22R/S23N/M24R/N25R/Y26L/D92A): as the sequence (Q99572 whole entry N16P/T19I/R20V/I21V/Q22R/S23N/M24R/N25R/Y26L/F95A) above, with D92A, A95F counted along it
Protocol: as §2, §3

P2X7R point mutant Q116A = target: T9, P2X7R point mutant Q116A (Homo sapiens, UniProt Q99572, I21V/M24R/N16P/N25R/Q116A/Q22R/R20V/S23N/T19I/Y26L); assay: as above; type: cell-based; conditions: EC90 ATP, mean ± S.E.M.
T9 construct: expressed in transfected cells; host or cells: Xenopus laevis oocytes (cRNA injection)
T9 sequence (Q99572 whole entry N16P/T19I/R20V/I21V/Q22R/S23N/M24R/N25R/Y26L/Q116A): as the sequence (Q99572 whole entry N16P/T19I/R20V/I21V/Q22R/S23N/M24R/N25R/Y26L/F95A) above, with A95F, Q116A counted along it
Protocol: as §2, §3

[2] = target: T10, chimeric P2X7/1 receptor 122–128 (Homo sapiens, UniProt Q99572, DEL124-124/I21V/L128I/M24R/N16P/N25R/Q22R/R125E/R126G/R20V/S23N/T127G/T19I/Y122H/Y26L); assay: as above; type: cell-based
T10 construct: expressed in transfected cells; host or cells: Xenopus laevis oocytes (cRNA injection)
T10 sequence (Q99572 with tags, fused parts or gaps N16P/T19I/R20V/I21V/Q22R/S23N/M24R/N25R/Y26L/Y122H/DEL124-124/R125E/R126G/T127G/L128I): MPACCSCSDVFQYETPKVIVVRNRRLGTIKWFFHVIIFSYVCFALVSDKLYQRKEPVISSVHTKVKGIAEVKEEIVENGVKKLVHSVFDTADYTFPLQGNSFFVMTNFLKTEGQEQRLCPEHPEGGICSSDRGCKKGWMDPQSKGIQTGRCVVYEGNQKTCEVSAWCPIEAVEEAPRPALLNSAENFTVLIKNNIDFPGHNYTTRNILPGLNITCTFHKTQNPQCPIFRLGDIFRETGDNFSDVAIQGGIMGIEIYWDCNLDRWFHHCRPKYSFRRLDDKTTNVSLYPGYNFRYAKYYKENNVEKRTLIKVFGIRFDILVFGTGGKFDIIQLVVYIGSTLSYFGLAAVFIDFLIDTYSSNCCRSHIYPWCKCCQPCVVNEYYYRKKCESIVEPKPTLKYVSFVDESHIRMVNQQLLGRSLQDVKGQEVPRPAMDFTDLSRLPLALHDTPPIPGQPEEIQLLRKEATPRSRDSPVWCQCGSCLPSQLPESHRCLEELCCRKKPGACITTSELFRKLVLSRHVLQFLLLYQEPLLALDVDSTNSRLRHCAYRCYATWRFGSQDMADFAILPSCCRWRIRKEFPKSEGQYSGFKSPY
Protocol: as §1, §3

T1 sequence (Q99572 whole entry N16P/T19I/R20V/I21V/Q22R/S23N/M24R/N25R/Y26L/K297G): as the sequence (Q99572 whole entry N16P/T19I/R20V/I21V/Q22R/S23N/M24R/N25R/Y26L/F95A) above, with A95F, K297G counted along it

| SMILES | IC50 (P2X7R point mutant K297G) | IC50 (P2X7R point mutant F95A) | IC50 (P2X7R mutant Insert G99) | IC50 [1] | IC50 (P2X7R point mutant S165F) | IC50 (P2X7R point mutant V312A) | IC50 (P2X7R point mutant P96A) | IC50 (P2X7R point mutant D92A) | IC50 (P2X7R point mutant Q116A) | IC50 [2] | effect on antagonist potency relative to P2X7-2Nβ ([1]; chimera 81–88) | effect on antagonist potency relative to P2X7-2Nβ ([2]; chimera 122–128) |
| --- | --- | --- | --- | --- | --- | --- | --- | --- | --- | --- | --- | --- |
| Cl.Clc1cccc(-c2nnnn2Cc2cccnc2)c1Cl.O [A438079, 3-(5-(2,3-dichlorophenyl)-1H-tetrazol-1-yl)methyl pyridine hydrochloride hydrate] | 50.1 nM | > 100000 nM | 12600 nM | 1000 nM | 7940 nM | 5010 nM | 12600 nM | > 100000 nM | 1260 nM | 794 nM | – | – |
| COc1ccc(CC(=O)NC(N=C(NC#N)Nc2cccc3ncccc23)C(C)(C)C)cc1OC (stereo not shown) [A740003, N-[1-[[(cyanoamino)(5-quinolinylamino)methylene]amino]-2,2-dimethylpropyl]-3,4-dimethoxybenzeneacetamide] | 12.6 nM | 1000 nM | 1580 nM | 79.4 nM | 200 nM | 398 nM | 316 nM | 7940 nM | 316 nM | 100 nM | no effect | no effect |
